Assay results taken from patent US10092541B2, “Methods for the treatment of diseases ameliorated by PDE4 inhibition using dosage titration of apremilast” (CELGENE CORPORATION, priority 2014, dated 2018).
Marks after values point to notes of the source that are not given here.

Experiments:
Type in all cases: in vivo, human
peripheral whole blood = assay: Differential gene expression analyses (microarray) in atopic dermatitis patients
Description: As an exploratory end point to potentially identify immune pathways affected by apremilast, peripheral whole blood was obtained for differential gene expression analyses at baseline and after 3 (cohort 1) and 6 (cohort 2) months of treatment to determine apremilast's potential mechanism of action in patients with atopic dermatitis. RNA isolation and microarray analyses were performed in the Oregon Health and Science University Gene Microarray Shared Resource. Total RNA was isolated from PAXGene tubes using the PAXGene Blood RNA Isolation kit (QIAGEN Inc). RNA quantity was measured by spectrophotometric analysis; RNA quality was evaluated by size analysis on the Bioanalyzer 2100 (Agilent Technologies Inc). All samples passed RNA quality assessment review.
RNA samples were labeled using the OvationWTAPico Amplification and Labeling System (NuGEN Technologies Inc). Fifty nanograms of each sample were amplified with the Ovation WTA Pico kit, converted to sense complementary DNA (cDNA) with the WT-Ovation Exon Module, version 1, kit, and labeled with the Encore Biotin Module kit. Hybridization and array processing were performed as described in the NuGEN Encore Biotin Module User Guide http://www.nugeninc.com/tasks/sites/nugen/assets/File/user_guides/userguide_encore_biotin.pdf). Two micrograms of each labeled cDNA target werehybridized with the GeneChip Human Gene 1.0 ST array (Affymetrix) and scanned on the Affymetrix GeneChip 3000 Scanner. The array image was processed with Affymetrix Command Console (version 3.1.1). Data were normalized using the robust multichip average method.
Differential expression analyses were performed on 16 paired samples. All putatively differentially expressed genes were based on false discovery rate-adjusted P values<0.05. Based on the putative differentially expressed gene list, both enriched pathways and functional gene ontologic characteristics were identified (P<0.05 for hypergeometric test) in the GoStats package within the Bioconductor statistical programming environment (http://www.bioconductor.org).

[1] = tested on: patients with moderate to severe atopic dermatitis; assay: Open-label pilot study of 2 doses of apremilast in adult atopic dermatitis; conditions: for DLQI scores, average reduction / EASI scores, average reduction / patients who reduced their IGA score by 1 U / average reduction in itch using a VAS / DLQI score, mean after treatment / EASI score, mean after treatment / VAS for pruritus, mean after treatment: 3 months; for average reduction in itch using a VAS: intent-to-treat; for EASI after treatment: from 21.1
[2] = tested on: patients with moderate to severe plaque psoriasis; assay: Esteem 2: randomized, double-blind, placebo controlled, multicenter clinical study in psoriasis; conditions: for PASI-75, % (LOCF): primary endpoint; for sPGA score 0 (clear) or 1 (almost clear), % (LOCF): with ≥2-point reduction from baseline; for PPPGA score 0 (clear) or 1 (almost clear), %: patients with palmoplantar psoriasis (PPPGA ≥3), n = 26; for ScPGA score 0 (clear) or 1 (minimal), %: patients with scalp psoriasis (ScPGA ≥3), n = 176
Description: In the study 413 patients were enrolled; patients ranged in age from 18 to 83 years, with an overall median age of 46 years. The mean baseline body surface area (BSA) involvement was 25.19% (median 21.0%), the mean baseline PASI score was 19.07 (median 16.80), and the proportion of patients with sPGA score of 3 (moderate) and 4 (severe) at Baseline were 70.0% and 29.8%, respectively. Patients were randomized to Apremilast in an amount of 30 mg twice per day (after the initial dose titration schedule) or placebo for the first 16 weeks, and from Weeks 16 to 32, all patients received Apremilast in an amount of 30 mg twice per day.
Target Dose: 30 mg (po) BID
Day 1: 10 mg in the morning
Day 2: 10 mg morning; 10 mg after noon
Day 3: 10 mg morning; 20 mg after noon
Day 4: 20 mg morning; 20 mg after noon
Day 5: 20 mg morning; 30 mg after noon
During the Randomized Treatment Withdrawal Phase (Weeks 32-52), patients originally randomized to Apremilast who achieved at least a 50% reduction in PASI score (PASI-50) were re-randomized to either placebo or Apremilast 30 mg BID. Patients who were re-randomized to placebo and who lost 50% of the improvement in PASI at Week 32 compared to Baseline, were retreated with Apremilast 30 mg BID.

[3] = cohort 1, 20 mg twice a day, baseline vs 3 months
[4] = cohort 2, 30 mg twice a day, 6 months
[5] = 61 patients with ≥PASI-50 at Week 32 re-randomized to apremilast
[6] = Week 16, 30 mg BID, n = 274, LOCF
[7] = Week 16, 30 mg BID, n = 274, LOCF, listed as Apremilast
[8] = Week 16, 30 mg BID, n = 274, listed as Apremilast
[9] = Week 16, 30 mg BID, patients with baseline DLQI >5, n = 226
[10] = Week 16, 30 mg BID, patients with nail psoriasis (score ≥1), n = 175
[11] = Week 16, 30 mg BID, listed as Apremilast
[12] = initially randomized to apremilast, did not achieve PASI-50 at Week 32
[13] = patients treated with apremilast from baseline
[14] = placebo at baseline, switched to apremilast at Week 16, achieved PASI-50 at Week 32
[15] = placebo at baseline, switched to apremilast at Week 16, did not achieve PASI-50 at Week 32

CCOc1cc([C@@H](CS(C)(=O)=O)N2C(=O)c3cccc(NC(C)=O)c3C2=O)ccc1OC [apremilast, (+)-2-[1-(3-ethoxy-4-methoxyphenyl)-2-methylsulfonylethyl]-4-acetylaminoisoindoline-1,3-dione]
BAD (bcl-2 antagonist of cell death) phosphorylation pathway gene expression (peripheral whole blood; [3]): significant differential expression
IL-12 signaling (gene ontologic analysis) (peripheral whole blood; [3]): significant differential expression
cAMP response element binding (CREB) pathway gene expression (peripheral whole blood; [3]): significant differential expression
chemokine-mediated signaling (gene ontologic analysis) (peripheral whole blood; [3]): significant differential expression
cytoskeleton remodeling (gene ontologic analysis) (peripheral whole blood; [3]): significant differential expression
regulation of immune complex clearing by monocytes and macrophages (gene ontologic analysis) (peripheral whole blood; [3]): significant differential expression
CCR3 signaling in eosinophils gene expression (peripheral whole blood; cohort 2, 30 mg twice a day, baseline vs 6 months): significant differential expression
DLQI after treatment ([1]; both cohorts combined, post hoc intent-to-treat, mean baseline 11.6): 4.7
EASI score after treatment ([1]; both cohorts combined, post hoc intent-to-treat, mean baseline 24.8): 16.2
VAS after treatment ([1]; both cohorts combined, post hoc intent-to-treat, mean baseline 52.0 mm): 31.7 mm
time to statistically significant decline in pruritus ([1]; cohort 1, 20 mg twice a day): ≤ 2 weeks
DLQI scores, average reduction ([1]; cohort 1, 20 mg twice a day): 55%
EASI scores, average reduction ([1]; cohort 1, 20 mg twice a day): 19%
patients who reduced their IGA score by 1 U ([1]; cohort 1, 20 mg twice a day, 6 patients): 1
average reduction in itch using a VAS ([1]; cohort 1, 20 mg twice a day): 49%
DLQI score, mean after treatment ([1]; cohort 1, 20 mg twice a day, mean baseline 14.2): 6.2
EASI score, mean after treatment ([1]; cohort 1, 20 mg twice a day, mean baseline 30.9): 22.1
VAS for pruritus, mean after treatment ([1]; cohort 1, 20 mg twice a day, mean baseline 62.3 mm): 30.5 mm
time to statistically significant clinical improvement in atopic dermatitis ([1]; cohort 2, 30 mg twice a day): ≤ 2 weeks
patients who achieved an IGA score of mild ([1]; cohort 2, 30 mg twice a day, 3-month time point): One patient
DLQI scores, average reduction ([1]; cohort 2, 30 mg twice a day): 58%
EASI scores, average reduction ([1]; cohort 2, 30 mg twice a day): 39%
patients who reduced their IGA score by 1 U ([1]; cohort 2, 30 mg twice a day, 10 patients): Two of 10 patients
average reduction in itch using a VAS ([1]; cohort 2, 30 mg twice a day): 25%
VAS for pruritus, mean after treatment ([1]; cohort 2, 30 mg twice a day, baseline 45.8 mm): 32.4 mm
DLQI score, mean after treatment ([1]; cohort 2, 30 mg twice a day, mean baseline 10.1): 3.8
EASI score, mean after treatment ([1]; cohort 2, 30 mg twice a day, mean baseline 21.4): 13.2
patients improved at least 1 U in the IGA, % [1, 4]: 50%
patients improved at least 1 U in the IGA, number [1, 4]: Five patients
patients who achieved an IGA of almost clear [1, 4]: 1
patients who reached an IGA of mild [1, 4]: Four of these 5
EASI after treatment ([1]; cohort 2, 30 mg twice a day, 6 months, intent to treat): 11.6
VAS after treatment ([1]; cohort 2, 30 mg twice a day, 6 months, intent to treat, from 45.8 mm): 25.3 mm
DLQI after treatment ([1]; cohort 2, 30 mg twice a day, 6 months, per protocol, from 10.1): 4.0
EASI after treatment ([1]; cohort 2, 30 mg twice a day, 6 months, per protocol): 10.4
VAS after treatment ([1]; cohort 2, 30 mg twice a day, 6 months, per protocol, from 45.8): 22.7
patients who reached an IGA score of clear or almost clear ([1]; either cohort (20 mg or 30 mg twice a day), 3-month time point): No patient
Non-overlapping confidence intervals vs placebo in improvement in pruritus and skin discomfort/pain from baseline, first detected ([2]; 30 mg BID): as early as Week 2
Non-overlapping confidence intervals vs placebo in mean percentage improvement in PASI from baseline, first detected ([2]; 30 mg BID, first post-baseline visit): as early as Week 2
regained PASI-50 response after re-treatment ([2]; 32 patients re-randomized to placebo who lost 50% of PASI improvement and re-initiated apremilast before Week 52): 65.6%
PASI-75 at Week 52 ([2]; 36 patients re-randomized to apremilast who were also PASI-75 responders at Week 32): 66.7%
PASI-50 response at Week 52 [2, 5]: 80.3%
mean percent change in PASI at Week 52 [2, 5]: −74.4%
≥70% improvement from baseline in PASI score at Week 52 [2, 5]: 60.7%
decrease in pruritus severity from baseline ([2]; Week 16, 30 mg BID): ~50%
decrease in skin discomfort/pain severity from baseline ([2]; Week 16, 30 mg BID): ~50%
PASI-50, % (LOCF) ([2]; Week 16, 30 mg BID, n = 274): 55.5%
PASI-50, % (NRI) ([2]; Week 16, 30 mg BID, n = 274): 53.6* %
PASI-75, % (NRI) ([2]; Week 16, 30 mg BID, n = 274): 28.1* %
PASI-90, % (LOCF) ([2]; Week 16, 30 mg BID, n = 274): 8.8%
sPGA score 0 (clear) or 1 (almost clear), % (NRI) ([2]; Week 16, 30 mg BID, n = 274): 19.7* %
Mean % change in PASI score [2, 6]: −50.9%
Mean change in DLQI score [2, 6]: −6.7*
Mean change in pruritus VAS score, mm [2, 6]: −33.5 mm
Mean change in skin discomfort/pain VAS score, mm [2, 6]: −28.5 mm
Median % change in PASI score [2, 6]: −56.0%
Mean % change in PASI score [2, 7]: −50.9* %
Mean change in pruritus VAS score, mm [2, 7]: −33.5* mm
Mean change in skin discomfort/pain VAS score, mm [2, 7]: −28.5* mm
PASI-50, % (LOCF) [2, 8]: 55.5* %
PASI-90, % (LOCF) [2, 8]: 8.8^‡ %
PASI-75, % (LOCF) ([2]; Week 16, 30 mg BID, n = 274): 28.8%
PASI-75, % (LOCF) [2, 8]: 28.8* %
sPGA score 0 (clear) or 1 (almost clear), % (LOCF) ([2]; Week 16, 30 mg BID, n = 274): 20.4%
sPGA score 0 (clear) or 1 (almost clear), % (LOCF) [2, 8]: 20.4* %
DLQI (decrease of ≥5 points) + PASI-50 response, % [2, 9]: 49.1* %
DLQI response (decrease of ≥5 points), % [2, 9]: 70.8* %
Mean % change in NAPSI score [2, 10]: −29.0** %
NAPSI-50, % [2, 10]: 44.6%
NAPSI-50, % ([2]; Week 16, 30 mg BID, patients with nail psoriasis (score ≥1), n = 175, listed as Apremilast): 44.6* %
PPPGA score 0 (clear) or 1 (almost clear), % ([2]; Week 16, 30 mg BID): 65.4%
PPPGA score 0 (clear) or 1 (almost clear), % [2, 11]: 65.4^|| %
ScPGA score 0 (clear) or 1 (minimal), % ([2]; Week 16, 30 mg BID): 40.9%
ScPGA score 0 (clear) or 1 (minimal), % [2, 11]: 40.9* %
Response rates in placebo patients who switched to apremilast at Week 16 vs apremilast in both treatment periods ([2]; Weeks 16 to 32): response rates similar
Severity of the majority of adverse events ([2]; did not lead to discontinuation): mild to moderate
5 most common adverse events (AEs) ([2]; human, in vivo): diarrhea, nausea, upper respiratory tract infection, tension headache, and headache
Discontinuation due to upper respiratory tract infection ([2]; human, in vivo): No patient discontinued
Discontinuations due to AEs: diarrhea ([2]; human, in vivo): 0.8%
Discontinuations due to AEs: headache ([2]; human, in vivo): 0.4%
Discontinuations due to AEs: nausea ([2]; human, in vivo): 1.2%
Discontinuations due to AEs: tension headache ([2]; human, in vivo): 0.2%
PASI-50 at Week 52 [2, 12]: 32.8%
mean percent change from baseline in PASI score at Week 52 [2, 12]: −45.7%
median time to first loss of 50% of the PASI improvement obtained at Week 32 ([2]; patients re-randomized to apremilast): 21.9 weeks
PASI, sPGA, and DLQI responses from Weeks 16 to 32 [2, 13]: generally maintained
PASI-50, PASI-75, and PASI-90 responses from Weeks 16 to 32 [2, 13]: generally maintained
PASI-50 at Week 52 [2, 14]: 83.1%
mean percent change in PASI from baseline at Week 52 [2, 14]: −71.8%
PASI-50 at Week 52 [2, 15]: 16.0%
mean percent change from baseline in PASI at Week 52 [2, 15]: −24.7%
signs and symptoms of psoriasis ([2]; study conclusion): significantly improved
